Read-outs that look alike come from different tables or passages of the source.
Columns and labels:
[1] = molecular target: HEK293 cells expressing NR1/NR2B (Homo sapiens (Human), UniProt Q13224); assay: NR2B NAM Assay (FDSS Ca2+ influx cell assay); type: cell-based
Protocol: (§1) Cell Culture and plating: HEK293 cells expressing NR1/NR2B (Chantest, Cleveland, Ohio) were grown to 70-80% confluency as an adherent monolayer in standard tissue culture flasks at 37° C., 5% CO2 per supplier's instructions. NR2B expression was induced by incubation with 0.3-0.4 μg/ml tetracycline in the presence of 4 mM ARL-15896 for 18-24 hours under the same growth conditions, then transferred to 30° C. for another 3-5 hours.
(§2) After induction, cell culture medium was removed and cells were rinsed once with Ca^2+ and Mg^2+-free Dulbecco's phosphate buffered saline. Cells were then removed from the flask using TrypLE™ Express (Life Technologies) according to the manufacturer's instructions and collected to 50 ml centrifuge tubes. Following two washes in Ca^2+/Mg^2+-free HBSS with 20 mM HEPES (HHnoCa), cells were counted and viability assessed using trypan blue. To load cells with Ca^2+-sensitive dye, they were resuspended in fluo-8 plus Component B (AAT Bioquest Products) diluted in HHnoCa and incubated 15 minutes at 37° C., followed by 30 minutes at room temp (in dark). Cells were then washed and resuspended in HHnoCa to remove extracellular dye and plated in 384-well plates (Falcon, uncoated) at 20,000-30,000 cells/well in a final volume of 25 μl/well.
(§3) FDSS Assay: To each well of the plate, 10 μL test compound, control (MK801) or HHnoCa buffer was added at different concentrations to yield final concentrations of 0.001, 0.003, 0.010, 0.030, 0.100, 0.300, 1.000, 3.000, 10.000, or 30.000 uM final concentration of DMSO of 0.1%. Following 10 minutes pre-incubation in the dark, plates are loaded onto the Hamamatsu FDSS 6000. After collecting baseline fluorescence images, 3 μM glutamate, 3 μM glycine, and 1 mM Ca^2+ in HHnoCa buffer is added to each well, and Ca^2+ is recorded for 3 minutes. Data were processed by computing ratio of fluorescence at the end of data collection to baseline fluorescence to assess degree of Ca^2+ influx inhibition relative to that observed in MK801.
(§4) Table 8 below provides activity of each compound according to the legend that “++++” indicates inhibition at a concentration<100 nM; “+++” indicates inhibition at a concentration between 100 nM and 1 μM of the disclosed compound; “++” indicates inhibition at a concentration of from 1 μM to 10 μM; and “+” indicates inhibition at a concentration>10 μM.

[2] = molecular target: HEK293 cells expressing NR1/NR2B (Homo sapiens (Human), UniProt Q05586+Q13224); assay: NR2B NAM Assay (FDSS Ca2+ influx cell assay); type: cell-based; details: NR2B NAM assay, class of inhibitory concentration; read-out: Activity Category
HEK293 cells expressing NR1/NR2B (Homo sapiens (Human), UniProt Q05586+Q13224), sequence (Q13224 27-1484, other chains not shown): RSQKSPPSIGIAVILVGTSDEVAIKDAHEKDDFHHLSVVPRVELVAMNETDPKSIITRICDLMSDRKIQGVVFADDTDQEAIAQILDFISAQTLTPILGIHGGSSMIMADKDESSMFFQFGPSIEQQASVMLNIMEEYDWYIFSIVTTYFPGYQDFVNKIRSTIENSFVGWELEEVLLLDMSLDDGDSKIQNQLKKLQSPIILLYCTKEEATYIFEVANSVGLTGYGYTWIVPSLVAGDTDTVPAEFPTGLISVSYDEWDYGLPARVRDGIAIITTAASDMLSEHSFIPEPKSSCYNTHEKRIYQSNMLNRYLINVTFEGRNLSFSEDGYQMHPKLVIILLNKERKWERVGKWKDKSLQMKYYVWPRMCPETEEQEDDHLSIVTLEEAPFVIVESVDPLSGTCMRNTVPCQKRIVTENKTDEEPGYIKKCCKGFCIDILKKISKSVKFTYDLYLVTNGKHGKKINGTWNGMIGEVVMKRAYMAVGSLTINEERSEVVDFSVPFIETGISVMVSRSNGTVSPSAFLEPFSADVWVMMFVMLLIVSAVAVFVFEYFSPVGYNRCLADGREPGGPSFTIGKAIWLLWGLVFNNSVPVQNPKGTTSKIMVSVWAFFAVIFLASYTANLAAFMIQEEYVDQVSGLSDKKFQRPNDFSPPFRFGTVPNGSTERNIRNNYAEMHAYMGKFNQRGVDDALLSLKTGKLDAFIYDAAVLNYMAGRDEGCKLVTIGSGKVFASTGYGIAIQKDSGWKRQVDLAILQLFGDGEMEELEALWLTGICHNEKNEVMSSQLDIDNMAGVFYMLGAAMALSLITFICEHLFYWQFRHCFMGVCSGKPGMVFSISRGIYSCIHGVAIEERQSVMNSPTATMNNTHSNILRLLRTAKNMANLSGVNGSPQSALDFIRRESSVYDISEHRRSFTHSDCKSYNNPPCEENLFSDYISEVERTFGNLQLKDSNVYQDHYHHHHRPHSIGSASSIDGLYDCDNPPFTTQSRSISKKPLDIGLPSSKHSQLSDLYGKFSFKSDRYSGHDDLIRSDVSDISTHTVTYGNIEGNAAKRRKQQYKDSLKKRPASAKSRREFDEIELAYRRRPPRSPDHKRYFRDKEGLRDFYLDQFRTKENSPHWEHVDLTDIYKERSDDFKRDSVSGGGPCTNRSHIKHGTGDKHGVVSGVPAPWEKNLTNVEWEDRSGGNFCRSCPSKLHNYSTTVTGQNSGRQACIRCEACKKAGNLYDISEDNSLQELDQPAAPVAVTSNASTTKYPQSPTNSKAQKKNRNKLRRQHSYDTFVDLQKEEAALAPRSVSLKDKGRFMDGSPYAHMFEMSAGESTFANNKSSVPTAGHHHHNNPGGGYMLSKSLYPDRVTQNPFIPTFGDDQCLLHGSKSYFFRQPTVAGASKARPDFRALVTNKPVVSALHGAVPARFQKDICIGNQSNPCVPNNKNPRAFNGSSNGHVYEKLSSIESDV
Protocol: as §1, §2, §3, §4

[3] = Ca2+ influx inhibition relative to MK801, 3 μM glutamate, 3 μM glycine, 1 mM Ca2+, read-out: NR2B NAM IC50

HEK293 cells expressing NR1/NR2B (Homo sapiens (Human), UniProt Q13224), sequence (Q13224 27-1484, other chains not shown): as above

Row | IC50 [1, 3] | IC50 [2] | IC50 ([1]; NR2B NAM assay, class of inhibitory concentration, read-out: Activity Category) | Structure (SMILES)
1 | 3290 nM | 1000 to 10000 nM |  | COc1ccc(O[C@H]2C[C@@H]3CN(CC(O)c4ccc(O)c(F)n4)C[C@@H]3C2)cc1 (stereo partly shown)
2 | 9.6 nM | < 100 nM |  | Oc1ccc(C(O)CN2C[C@H]3C[C@H](Oc4c(F)cccc4F)C[C@H]3C2)nc1 (stereo partly shown)
3 | 10000 nM | > 10000 nM |  | O=C(CN1C[C@H]2C[C@H](Oc3ccc(F)cc3)C[C@H]2C1)c1ccc(O)c(F)n1
4 | 5.25 nM | < 100 nM |  | Oc1ccc([C@@H](O)CN2C[C@H]3C[C@H](Oc4ccccc4)C[C@H]3C2)nc1
5 | 46.4 nM | < 100 nM |  | COc1ccc(O[C@H]2C[C@@H]3CN(CC(=O)c4ccc(O)cc4)C[C@@H]3C2)cc1
6 | 249 nM | 100 to 1000 nM |  | COc1cccc(F)c1O[C@H]1C[C@@H]2CN(CC(O)c3ccc(O)cc3)C[C@@H]2C1 (stereo partly shown)
7 | 112 nM | 100 to 1000 nM |  | COc1ccc(O[C@@H]2C[C@@H]3CN(CC(O)c4ccc(O)cc4)C[C@@H]3C2)cc1 (stereo partly shown)
8 | 10000 nM | > 10000 nM |  | COc1cccc(O[C@H]2C[C@@H]3CN(CC(=O)c4ccc(O)cn4)C[C@@H]3C2)c1
9 | 163 nM | 100 to 1000 nM |  | COc1cccc(F)c1O[C@H]1C[C@@H]2CN(CC(O)c3ccc(O)cn3)C[C@@H]2C1 (stereo partly shown)
10 | 77.7 nM | < 100 nM |  | COc1cccc(O[C@H]2C[C@@H]3CN(CC(O)c4ccc(O)cc4)C[C@@H]3C2)c1F (stereo partly shown)
11 | 17.8 nM | < 100 nM |  | Oc1ccc(C(O)CN2C[C@H]3C[C@H](Oc4ccc(F)c(F)c4)C[C@H]3C2)nc1 (stereo partly shown)
12 | 102 nM | 100 to 1000 nM |  | COc1ccc(O[C@H]2C[C@@H]3CN(CC(=O)c4ccc(O)c(F)c4)C[C@@H]3C2)cc1
13 | 4370 nM | 1000 to 10000 nM |  | O=S(=O)(c1ccccc1)[C@H]1C[C@@H]2CN(CC(O)c3ccc(O)cc3)C[C@@H]2C1 (stereo partly shown)
14 | 10000 nM | > 10000 nM |  | O=C(CN1C[C@H]2C[C@H](Oc3ccc(F)nc3)C[C@H]2C1)c1ccc(O)cn1
15 | 21.7 nM | < 100 nM |  | Oc1ccc(C(O)CN2C[C@H]3C[C@H](Oc4cccnc4F)C[C@H]3C2)cc1F (stereo partly shown)
16 | 10000 nM | > 10000 nM |  | COC(CN1C[C@H]2C[C@H](Oc3ccc(F)cc3)C[C@H]2C1)c1ccc(OCc2ccccc2)cc1 (stereo partly shown)
17 | 29.3 nM | < 100 nM |  | O=C(CN1C[C@H]2C[C@H](Oc3c(F)cccc3F)C[C@H]2C1)c1ccc(O)cc1
18 | 10000 nM | > 10000 nM |  | O=C(CN1C[C@H]2C[C@H](Oc3cccnc3F)C[C@H]2C1)c1ccc(O)cn1
19 | 5220 nM | 1000 to 10000 nM |  | O=C(CN1C[C@H]2C[C@@H](Oc3cccnc3)C[C@H]2C1)c1ccc(O)cc1

Row | IC50 [1, 3] | IC50 [2] | IC50 ([1]; NR2B NAM assay, class of inhibitory concentration, read-out: Activity Category) | Structure (SMILES)
20 | 3780 nM | 1000 to 10000 nM |  | COc1cccc(O[C@H]2C[C@@H]3CN(CC(=O)c4ccc(O)cn4)C[C@@H]3C2)c1F
21 | 2370 nM | 1000 to 10000 nM |  | Cc1ccc(O[C@H]2C[C@@H]3CN(CC(=O)c4ccc(O)c(F)c4)C[C@@H]3C2)cn1
22 | 10000 nM | > 10000 nM |  | O=C(CN1C[C@H]2C[C@H](Oc3cc(F)cc(F)c3)C[C@H]2C1)c1ccc(O)cn1
23 | 50.8 nM | < 100 nM |  | COc1cccc(O[C@H]2C[C@@H]3CN(CC(O)c4ccc(O)cn4)C[C@@H]3C2)c1F (stereo partly shown)
24 | 140 nM | 100 to 1000 nM |  | Cc1ccc(O[C@H]2C[C@@H]3CN(CC(O)c4ccc(O)cc4)C[C@@H]3C2)cn1 (stereo partly shown)
25 | 72.6 nM | < 100 nM |  | Cc1cccc(O[C@H]2C[C@@H]3CN(CC(O)c4ccc(O)cc4)C[C@@H]3C2)c1F (stereo partly shown)
26 | 3500 nM | 1000 to 10000 nM |  | O=C(CN1C[C@H]2CC(S(=O)(=O)c3ccccc3)C[C@H]2C1)c1ccc(O)cc1 (stereo partly shown)
27 | 53.4 nM | < 100 nM |  | O=C(CN1C[C@H]2C[C@@H](Oc3ccc(F)cc3)C[C@H]2C1)c1ccc(O)cc1
28 | 61.6 nM | < 100 nM |  | O=C(CN1C[C@H]2C[C@H](Oc3ccc(F)c(F)c3)C[C@H]2C1)c1ccc(O)cc1
29 | 10000 nM | > 10000 nM |  | COc1ccc(F)c(O[C@H]2C[C@@H]3CN(CC(=O)c4ccc(O)cn4)C[C@@H]3C2)c1
30 | 10000 nM | > 10000 nM |  | COc1cccc(F)c1O[C@H]1C[C@@H]2CN(CC(=O)c3ccc(O)cn3)C[C@@H]2C1
31 | 14.4 nM | < 100 nM |  | Cc1ccc(O[C@H]2C[C@@H]3CN(CC(O)c4ccc(O)cn4)C[C@@H]3C2)c(F)c1 (stereo partly shown)
32 | 466 nM | 100 to 1000 nM |  | COc1cccc(F)c1O[C@H]1C[C@@H]2CN(CC(=O)c3ccc(O)cc3)C[C@@H]2C1
33 | 10000 nM | > 10000 nM |  | N#Cc1ccc(O[C@@H]2C[C@@H]3CN(CC(=O)c4ccc(O)cn4)C[C@@H]3C2)cc1
34 | 250 nM | 100 to 1000 nM |  | COc1ccc(O[C@@H]2C[C@@H]3CN(CC(=O)c4ccc(O)c(F)c4)C[C@@H]3C2)cc1
35 | 230 nM | 100 to 1000 nM |  | COc1ccc(S[C@H]2C[C@@H]3CN(CC(=O)c4ccc(O)cc4)C[C@@H]3C2)cc1
36 | 191 nM | 100 to 1000 nM |  | Oc1ccc(C(O)CN2C[C@H]3C[C@H](Oc4cccc5cnccc45)C[C@H]3C2)cc1 (stereo partly shown)
37 | 38 nM | < 100 nM |  | Oc1ccc(C(O)CN2C[C@H]3C[C@H](Oc4ccccc4Cl)C[C@H]3C2)nc1 (stereo partly shown)
38 | 47 nM | < 100 nM |  | O=C(CN1C[C@H]2C[C@H](Oc3ccc(F)cc3)C[C@H]2C1)c1ccc(O)cc1

Row | IC50 [1, 3] | IC50 [2] | IC50 ([1]; NR2B NAM assay, class of inhibitory concentration, read-out: Activity Category) | Structure (SMILES)
39 | 5.96 nM | < 100 nM |  | Oc1ccc(C(O)CN2C[C@H]3C[C@H](Oc4ccccc4)C[C@H]3C2)cc1 (stereo partly shown)
40 | 65.8 nM | < 100 nM |  | COc1ccc(O[C@H]2C[C@@H]3CN(CC(O)c4ccc(O)cn4)C[C@@H]3C2)cc1 (stereo partly shown)
41 | 17.8 nM | < 100 nM |  | Oc1ccc(C(O)CN2C[C@H]3C[C@@H](Oc4ccc(F)cc4)C[C@H]3C2)cc1 (stereo partly shown)
42 | 70.7 nM | < 100 nM |  | COc1cccc(O[C@H]2C[C@@H]3CN(CC(O)c4ccc(O)cn4)C[C@@H]3C2)c1 (stereo partly shown)
43 | 112 nM | 100 to 1000 nM |  | Oc1ccc(C(O)CN2C[C@H]3C[C@H](Oc4ccc(F)nc4)C[C@H]3C2)nc1 (stereo partly shown)
44 | 6240 nM | 1000 to 10000 nM |  | O=C(CN1C[C@H]2C[C@H](Oc3ccccc3)C[C@H]2C1)c1ccc(O)cn1
45 | 13 nM | < 100 nM |  | Oc1ccc(C(O)CN2C[C@H]3C[C@H](Oc4ccc(F)cc4)C[C@H]3C2)cc1 (stereo partly shown)
46 | 10000 nM | > 10000 nM |  | N#Cc1cccc(O[C@H]2C[C@@H]3CN(CC(=O)c4ccc(O)cn4)C[C@@H]3C2)c1
47 | 547 nM | 100 to 1000 nM |  | COc1ccc(F)c(O[C@H]2C[C@@H]3CN(CC(O)c4ccc(O)cn4)C[C@@H]3C2)c1 (stereo partly shown)
48 | 81.5 nM | < 100 nM |  | O=C(CN1C[C@H]2C[C@H](Oc3cccnc3)C[C@H]2C1)c1ccc(O)cc1
49 | 20 nM | < 100 nM |  | Oc1ccc([C@@H](O)CN2C[C@H]3C[C@H](Oc4cccnc4F)C[C@H]3C2)nc1
50 | 30.2 nM | < 100 nM |  | Oc1ccc(C(O)CN2C[C@H]3C[C@H](Oc4ccc(F)cc4)C[C@H]3C2)nc1F (stereo partly shown)
51 | 26.3 nM | < 100 nM |  | Oc1ccc(C(O)CN2C[C@H]3C[C@H](Oc4c(F)cccc4F)C[C@H]3C2)cc1 (stereo partly shown)
52 | 19.2 nM | < 100 nM |  | Oc1ccc(C(O)CN2C[C@H]3C[C@H](Sc4ccc(F)cc4)C[C@H]3C2)cc1 (stereo partly shown)
53 | 2780 nM | 1000 to 10000 nM |  | O=C(CN1C[C@H]2C[C@H](Oc3ccncc3)C[C@H]2C1)c1ccc(O)cc1
54 | 1980 nM |  | 1000 to 10000 nM | OC(CN1C[C@H]2C[C@H](Oc3ccc(F)cc3)C[C@H]2C1)c1cn[nH]c1 (stereo partly shown) [drawing 268]
55 | 83.9 nM | < 100 nM |  | COc1ccc(O[C@@H]2C[C@@H]3CN(CC(O)c4ccc(O)c(F)c4)C[C@@H]3C2)cc1 (stereo partly shown)
56 | 4470 nM | 1000 to 10000 nM |  | Oc1ccc(C(O)CN2C[C@H]3C[C@H](Oc4ccncc4)C[C@H]3C2)cc1 (stereo partly shown)
